≈ marks a conversion by molar mass, not a printed value.
Tested on: Pasteurella multocida
Assay: minimum inhibitory concentration (MIC)
Description: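 Broth microdilution MIC (Sensititre BOPO7F bovine plate, CLSI methods) of 19 antimicrobials against field isolates of P. multocida, M. haemolytica, H. somni (deep nasopharyngeal swabs) and E. coli, Enterococcus spp. (rectal swabs) from weaned dairy heifers. Incubation 16-24 h at 35 C. MIC is the lowest concentration preventing visible growth. Values with <= or > lie at the tested range limits. Trimethoprim-sulfamethoxazole is given as the trimethoprim component of a 1:19 mixture.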

CNC(C)C1CCC(N)C(OC2C(N)CC(N)C(OC3OCC(C)(O)C(NC)C3O)C2O)O1 (stereo not given) [Gentamicin]
Conditions | minimum inhibitory concentration [µg/mL]
isolate (source animal id): 10 | 4 (≈ 8.38 µM)
isolate (source animal id): 11 | 2 (≈ 4.19 µM)
isolate (source animal id): 12 | 4 (≈ 8.38 µM)
isolate (source animal id): 19 | 4 (≈ 8.38 µM)
isolate (source animal id): 23 | 4 (≈ 8.38 µM)
isolate (source animal id): 26 | 4 (≈ 8.38 µM)
isolate (source animal id): 98 | 4 (≈ 8.38 µM)
isolate (source animal id): 104 | 2 (≈ 4.19 µM)
isolate (source animal id): 115 | 4 (≈ 8.38 µM)
isolate (source animal id): 117 | 4 (≈ 8.38 µM)
isolate (source animal id): 118 | 4 (≈ 8.38 µM)
isolate (source animal id): 121 | 4 (≈ 8.38 µM)
isolate (source animal id): 124 | 4 (≈ 8.38 µM)
isolate (source animal id): 125 | 4 (≈ 8.38 µM)
isolate (source animal id): 128 | 4 (≈ 8.38 µM)
isolate (source animal id): 131 | 16 (≈ 33.5 µM)
isolate (source animal id): 135 | 8 (≈ 16.8 µM)
isolate (source animal id): 136 | 4 (≈ 8.38 µM)
isolate (source animal id): 140 | 4 (≈ 8.38 µM)
isolate (source animal id): 144 | 4 (≈ 8.38 µM)
isolate (source animal id): 146 | 4 (≈ 8.38 µM)
isolate (source animal id): 150 | 4 (≈ 8.38 µM)
isolate (source animal id): 151 | 4 (≈ 8.38 µM)
isolate (source animal id): 153 | 4 (≈ 8.38 µM)
isolate (source animal id): 155 | 4 (≈ 8.38 µM)
isolate (source animal id): 157 | 4 (≈ 8.38 µM)
isolate (source animal id): 160 | 4 (≈ 8.38 µM)
isolate (source animal id): 164 | 4 (≈ 8.38 µM)
isolate (source animal id): 165 | 4 (≈ 8.38 µM)
isolate (source animal id): 167 | 4 (≈ 8.38 µM)
isolate (source animal id): 168 | 4 (≈ 8.38 µM)
isolate (source animal id): 169 | 4 (≈ 8.38 µM)
isolate (source animal id): 170 | 4 (≈ 8.38 µM)
isolate (source animal id): 171 | 4 (≈ 8.38 µM)
isolate (source animal id): 172 | 4 (≈ 8.38 µM)
isolate (source animal id): 173 | 4 (≈ 8.38 µM)
isolate (source animal id): 174 | 4 (≈ 8.38 µM)
isolate (source animal id): 175 | 4 (≈ 8.38 µM)
isolate (source animal id): 176 | 4 (≈ 8.38 µM)
isolate (source animal id): 177 | 4 (≈ 8.38 µM)
isolate (source animal id): 178 | 4 (≈ 8.38 µM)
isolate (source animal id): 179 | 4 (≈ 8.38 µM)
isolate (source animal id): 182 | 4 (≈ 8.38 µM)
isolate (source animal id): 192 | 4 (≈ 8.38 µM)
isolate (source animal id): 193 | 4 (≈ 8.38 µM)
isolate (source animal id): 195 | 4 (≈ 8.38 µM)
isolate (source animal id): 196 | 4 (≈ 8.38 µM)
isolate (source animal id): 197 | 4 (≈ 8.38 µM)
isolate (source animal id): 198 | 4 (≈ 8.38 µM)
isolate (source animal id): 199 | 4 (≈ 8.38 µM)
isolate (source animal id): 200 | 4 (≈ 8.38 µM)
isolate (source animal id): 201 | 4 (≈ 8.38 µM)
isolate (source animal id): 203 | 4 (≈ 8.38 µM)
isolate (source animal id): 204 | 4 (≈ 8.38 µM)
isolate (source animal id): 205 | 4 (≈ 8.38 µM)
isolate (source animal id): 206 | 4 (≈ 8.38 µM)
isolate (source animal id): 207 | 4 (≈ 8.38 µM)
isolate (source animal id): 208 | 4 (≈ 8.38 µM)
isolate (source animal id): 209 | 4 (≈ 8.38 µM)
isolate (source animal id): 210 | 4 (≈ 8.38 µM)
isolate (source animal id): 213 | 4 (≈ 8.38 µM)
isolate (source animal id): 216 | 4 (≈ 8.38 µM)
isolate (source animal id): 223 | 4 (≈ 8.38 µM)
isolate (source animal id): 227 | 2 (≈ 4.19 µM)
isolate (source animal id): 229 | 2 (≈ 4.19 µM)
isolate (source animal id): 233 | 4 (≈ 8.38 µM)
isolate (source animal id): 234 | 4 (≈ 8.38 µM)
isolate (source animal id): 237 | 4 (≈ 8.38 µM)
isolate (source animal id): 241 | 4 (≈ 8.38 µM)
isolate (source animal id): 245 | 4 (≈ 8.38 µM)
isolate (source animal id): 247 | 4 (≈ 8.38 µM)
isolate (source animal id): 250 | 2 (≈ 4.19 µM)
isolate (source animal id): 254 | 4 (≈ 8.38 µM)
isolate (source animal id): 255 | 4 (≈ 8.38 µM)
isolate (source animal id): 258 | 4 (≈ 8.38 µM)
isolate (source animal id): 261 | 2 (≈ 4.19 µM)
isolate (source animal id): 262 | 4 (≈ 8.38 µM)
isolate (source animal id): 269 | 4 (≈ 8.38 µM)
isolate (source animal id): 270 | 4 (≈ 8.38 µM)
isolate (source animal id): 274 | 4 (≈ 8.38 µM)
isolate (source animal id): 275 | 4 (≈ 8.38 µM)
isolate (source animal id): 276 | 4 (≈ 8.38 µM)
isolate (source animal id): 277 | 4 (≈ 8.38 µM)
isolate (source animal id): 278 | 4 (≈ 8.38 µM)
isolate (source animal id): 279 | 4 (≈ 8.38 µM)
isolate (source animal id): 280 | 4 (≈ 8.38 µM)
isolate (source animal id): 284 | 8 (≈ 16.8 µM)
isolate (source animal id): 285 | 2 (≈ 4.19 µM)
isolate (source animal id): 287 | 2 (≈ 4.19 µM)
isolate (source animal id): 290 | 4 (≈ 8.38 µM)
isolate (source animal id): 294 | 4 (≈ 8.38 µM)
isolate (source animal id): 295 | 2 (≈ 4.19 µM)
isolate (source animal id): 296 | 2 (≈ 4.19 µM)
isolate (source animal id): 307 | 4 (≈ 8.38 µM)
isolate (source animal id): 310 | 4 (≈ 8.38 µM)
isolate (source animal id): 311 | 4 (≈ 8.38 µM)
isolate (source animal id): 312 | ≤ 1
isolate (source animal id): 313 | 2 (≈ 4.19 µM)
isolate (source animal id): 315 | 4 (≈ 8.38 µM)
isolate (source animal id): 316 | 4 (≈ 8.38 µM)

NC[C@@H]1O[C@H](O[C@H]2[C@@H](O)[C@H](O[C@@H]3[C@@H](O)[C@H](N)C[C@H](N)[C@H]3O[C@H]3O[C@H](CN)[C@@H](O)[C@H](O)[C@H]3N)O[C@@H]2CO)[C@H](N)[C@@H](O)[C@@H]1O [Neomycin]
Conditions | minimum inhibitory concentration [µg/mL]
isolate (source animal id): 10 | > 32
isolate (source animal id): 11 | > 32
isolate (source animal id): 12 | > 32
isolate (source animal id): 19 | > 32
isolate (source animal id): 23 | > 32
isolate (source animal id): 26 | > 32
isolate (source animal id): 98 | > 32
isolate (source animal id): 104 | > 32
isolate (source animal id): 115 | 32 (≈ 52.1 µM)
isolate (source animal id): 117 | > 32
isolate (source animal id): 118 | > 32
isolate (source animal id): 121 | > 32
isolate (source animal id): 124 | > 32
isolate (source animal id): 125 | > 32
isolate (source animal id): 128 | > 32
isolate (source animal id): 131 | > 32
isolate (source animal id): 135 | > 32
isolate (source animal id): 136 | > 32
isolate (source animal id): 140 | > 32
isolate (source animal id): 144 | > 32
isolate (source animal id): 146 | > 32
isolate (source animal id): 150 | > 32
isolate (source animal id): 151 | 32 (≈ 52.1 µM)
isolate (source animal id): 153 | > 32
isolate (source animal id): 155 | > 32
isolate (source animal id): 157 | > 32
isolate (source animal id): 160 | 32 (≈ 52.1 µM)
isolate (source animal id): 164 | 32 (≈ 52.1 µM)
isolate (source animal id): 165 | 32 (≈ 52.1 µM)
isolate (source animal id): 167 | > 32
isolate (source animal id): 168 | > 32
isolate (source animal id): 169 | > 32
isolate (source animal id): 170 | > 32
isolate (source animal id): 171 | > 32
isolate (source animal id): 172 | > 32
isolate (source animal id): 173 | > 32
isolate (source animal id): 174 | > 32
isolate (source animal id): 175 | > 32
isolate (source animal id): 176 | > 32
isolate (source animal id): 177 | 16 (≈ 26 µM)
isolate (source animal id): 178 | > 32
isolate (source animal id): 179 | > 32
isolate (source animal id): 182 | > 32
isolate (source animal id): 192 | > 32
isolate (source animal id): 193 | 16 (≈ 26 µM)
isolate (source animal id): 195 | 32 (≈ 52.1 µM)
isolate (source animal id): 196 | 8 (≈ 13 µM)
isolate (source animal id): 197 | > 32
isolate (source animal id): 198 | > 32
isolate (source animal id): 199 | > 32
isolate (source animal id): 200 | > 32
isolate (source animal id): 201 | > 32
isolate (source animal id): 203 | 32 (≈ 52.1 µM)
isolate (source animal id): 204 | > 32
isolate (source animal id): 205 | > 32
isolate (source animal id): 206 | > 32
isolate (source animal id): 207 | > 32
isolate (source animal id): 208 | > 32
isolate (source animal id): 209 | 32 (≈ 52.1 µM)
isolate (source animal id): 210 | > 32
isolate (source animal id): 213 | > 32
isolate (source animal id): 216 | > 32
isolate (source animal id): 223 | > 32
isolate (source animal id): 227 | > 32
isolate (source animal id): 229 | > 32
isolate (source animal id): 233 | > 32
isolate (source animal id): 234 | > 32
isolate (source animal id): 237 | > 32
isolate (source animal id): 241 | > 32
isolate (source animal id): 245 | > 32
isolate (source animal id): 247 | > 32
isolate (source animal id): 250 | > 32
isolate (source animal id): 254 | > 32
isolate (source animal id): 255 | > 32
isolate (source animal id): 258 | > 32
isolate (source animal id): 261 | > 32
isolate (source animal id): 262 | > 32
isolate (source animal id): 269 | > 32
isolate (source animal id): 270 | > 32
isolate (source animal id): 274 | > 32
isolate (source animal id): 275 | > 32
isolate (source animal id): 276 | > 32
isolate (source animal id): 277 | > 32
isolate (source animal id): 278 | > 32
isolate (source animal id): 279 | > 32
isolate (source animal id): 280 | > 32
isolate (source animal id): 284 | > 32
isolate (source animal id): 285 | > 32
isolate (source animal id): 287 | > 32
isolate (source animal id): 290 | > 32
isolate (source animal id): 294 | > 32
isolate (source animal id): 295 | > 32
isolate (source animal id): 296 | > 32
isolate (source animal id): 307 | > 32
isolate (source animal id): 310 | > 32
isolate (source animal id): 311 | > 32
isolate (source animal id): 312 | > 32
isolate (source animal id): 313 | > 32
isolate (source animal id): 315 | > 32
isolate (source animal id): 316 | > 32

— the supplement of paper PMC8612539
